One compound from patent publication US11564913B2, “Compositions and methods for treating cancer” (Children's Hospital Medical Center, priority 2019, dated 2023) can be followed below.

Experiment [1] concerns MCF7, T47D, and MDA-MB-231 cells. Description: Spheroid formation in ultra-low attachment plates, live cell count. The conditions noted are these: 0-3 μM, 5 days. The experiment is classed as cell-based. The method, then:
FIG. 6: IODVA1 inhibits cell-substratum and cell-cell interactions. (A) IODVA1 impedes spreading of MCF7 and MDA-MB-231 cells on fibronectin. MCF7, T47D, and MDA-MB-231 cells were incubated on fibronectin coated coverslips for 10 min, then further incubated with the indicated concentrations of IODVA1 for 30 min in serum-free media, fixed and observed by bright field microscopy. Areas of single cells were calculated from 6 random fields (no less than 300 cells total per treatment group). Results shown are mean±s.e.m. of a single experiment and are representative of three independent experiments. (B) Effects of IODVA1 treatment on spheroid formation in MCF10A, MCF7, T47D, and MDA-MB-231 cells. […] Aggregates and spheroids were dissociated with accutase and trituration, and the number of live cells was determined by trypan blue exclusion. […]
For the spheroid formation in the ultra-low attachment plates, MCF7, T47D, and MDA-MB-231 (5,000 cells) were incubated in complete media with IODVA1 at 0-3 μM for 5 days. Aggregates and spheroids were dissociated with Accutase and live cells were counted using trypan blue exclusion.
Spheroids were formed by the hanging drop method or using ultra-low attachment (ULA) plates (Corning). […] Spheroid formation was monitored daily and imaged using EVOS microscope (Life Technologies). […]

For experiment [2] the test system is unchanged. Description: Colony formation in soft agar, breast cancer cells. The experiment is classed as cell-based. The conditions noted are these: 1 and 3 μM. The method, then: FIG. 4. IODVA1 inhibits proliferation of cancer model cells. (A) IODVA1 is a potent cell proliferation inhibitor. MCF10A, MCF7, MDA-MB-231, and T47D cells were grown in the presence of the indicated IODVA1 concentrations and counted for 4 or up to 7 days. Each dot and bar is the mean±stdev respectively, of 3 independent experiments, with 2 technical replicates in each experiment. (B) Number of colonies made by MCF7, T47D, and MDA-MB-231 cells at the indicated IODVA1 concentrations. Results shown are mean±stdev of 2 independent experiments with 4 technical replicates each. (C) IODVA1 deactivates Ras at late incubation times. […] Quantification summary of 2 independent experiments is presented in the graph. n.s.—not significant, *-p<0.05, **-p<0.01, ****-p<0.0001. (D) IODVA1 inhibits proliferation of ST8814 cells. ST8814 cells were grown in the presence of the indicated IODVA1 concentrations and counted daily for 4 days. Each dot and bar is the mean and standard deviation respectively, of 3 independent experiments.
Applicants tested IODVA1's ability to inhibit the proliferation of cells harboring activated Ras and therefore its ability to recapitulate the compound obtained from the NCI. […] Cells were grown in growth media containing IODVA1 at concentrations between 0.1 and 10 μM or vehicle control and cell number was counted using the trypan blue exclusion method. […]

In the case of `OC1(c2ccccn2)N=C(Nc2nc3ccccc3[nH]2)N=C1c1ccccn1` (centres unmarked) [IODVA1, (Z)-2-((1H-benzo[d]imidazol-2-yl)imino)-4,5-di(pyridin-2-yl)-2,5-dihydro-1H-imidazol-5-ol], in experiment [1], the “number of live cells in a spheroid” value is listed as “significantly decreased”. The “number of colonies in soft agar” value in experiment [2] is on record as “significantly decreases”.
